Results published in the supplement of paper PMC12137928.
Structures can show the parent of a compound that is named as a salt.

Tested on: HCT116
Conditions: 72 h
Method in brief: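 Each well of the 1536-well plates received 250 HCT116 cells, which attached over 5 h. Luminescence was measured with CellTiter-Glo, scaled with vehicle as 0% and positive control as -100%, and pattern-corrected. A four-parameter Hill fit yielded IC50 and maximal efficacy.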

Row | IC50 cell viability (ICRF193 0 nM) [µM] | IC50 cell viability (ICRF193 200 nM) [µM] | SMILES
1 | > 45.8 | > 45.8 | C1CNCCN1 [Piperazine]
2 | > 45.8 | > 45.8 | O=C(O)CCC(=O)Nc1ccc(S(=O)(=O)Nc2nccs2)cc1 [Succinylsulfathiazole]
3 | > 45.8 | > 45.8 | C=CC[N+]1([C@H]2C[C@H]3[C@@H]4CC[C@H]5C[C@H](OC(C)=O)[C@@H](N6CCCCC6)C[C@]5(C)[C@H]4CC[C@]3(C)[C@H]2OC(=O)CC)CCCCC1 [Rapacuronium bromide]
4 | > 45.8 | > 45.8 | COc1cc(C(=O)NS(=O)(=O)c2ccccc2C)ccc1Cc1cn(C)c2ccc(NC(=O)OC3CCCC3)cc12 [Zafirlukast]
5 | > 45.8 | > 45.8 | CCOC(=O)c1ncn2c1CN(C)C(=O)c1cc(F)ccc1-2 [Flumazenil]
6 | > 45.8 | > 45.8 | NCCC[C@H](N)CC(=O)N[C@H]1CNC(=O)[C@H]([C@H]2C[C@H](O)NC(N)=N2)NC(=O)/C(=C/NC(N)=O)NC(=O)[C@H](CO)NC(=O)[C@H](CO)NC1=O [VIOMYCIN SULFATE]
7 | > 45.8 | > 45.8 | CCO[C@@H](Cc1ccc(OCCc2ccc(OS(C)(=O)=O)cc2)cc1)C(=O)O [Tesaglitazar]
8 | > 45.8 | > 45.8 | C=C(C)CNc1ccc(C(C)C(=O)O)cc1 (racemic) [rac Alminoprofen]
9 | > 45.8 | > 45.8 | CCCCCCCCCCCCCCCCC(C(=O)O)C(O)(CC(=O)O)C(=O)O (stereo unspecified) [Agaric acid]
10 | > 45.8 | > 45.8 | C[C@@H](O)[C@H]1C(=O)N2C(C(=O)O)=C(S[C@@H]3CN[C@H](CNS(N)(=O)=O)C3)[C@H](C)[C@H]12 [Doripenem]
11 | > 45.8 | > 45.8 | NC[C@H](O)c1ccc(O)c(O)c1 [Noradrenaline bitartrate monohydrate]
12 | > 45.8 | > 45.8 | C[C@@H](O)[C@H]1C(=O)N2C(C(=O)O)=C(S[C@@H]3CN[C@H](C(=O)N(C)C)C3)[C@H](C)[C@H]12 [Meropenem]
13 | > 45.8 | > 45.8 | CN(C)CCOC1=Cc2ccccc2Sc2ccc(Cl)cc21 [Zotepine]
14 | > 45.8 | > 45.8 | CN[C@H](CC(C)C)C(=O)N[C@H]1C(=O)N[C@@H](CC(N)=O)C(=O)N[C@H]2C(=O)N[C@H]3C(=O)N[C@H](C(=O)N[C@H](C(=O)O)c4cc(O)cc(O)c4-c4cc3ccc4O)[C@H](O)c3ccc(c(Cl)c3)Oc3cc2cc(c3O[C@@H]2O[C@H](CO)[C@@H](O)[C@H](O)[C@H]2O[C@H]2C[C@](C)(N)[C@H](O)[C@H](C)O2)Oc2ccc(cc2Cl)[C@H]1O [Vancomycin hydrochloride]
15 | > 45.8 | > 45.8 | Cc1cc(O)c2c(c1)O[C@@]1(C)CC[C@H]3C(C)(C)CCC[C@]34CO[C@@H]2[C@H]41 [Siccanin]
16 | > 45.8 | > 45.8 | C[N+](C)(CCCCCC[N+](C)(C)C1c2ccccc2-c2ccccc21)C1c2ccccc2-c2ccccc21 [Hexafluorenium dibromide]
17 | > 45.8 | > 45.8 | CCCOc1cc(N)ccc1C(=O)OCCN(CC)CC [PROPOXYCAINE HYDROCHLORIDE]
18 | > 45.8 | > 45.8 | NCc1ccc(S(N)(=O)=O)cc1 [Mafenide hydrochloride]
19 | > 45.8 | > 45.8 | NC[C@H]1O[C@H](O[C@H]2[C@H](O[C@@H]3O[C@H](CO)[C@@H](O)[C@H]3O)[C@@H](O)[C@H](N)C[C@@H]2N)[C@H](N)[C@@H](O)[C@@H]1O [Ribostamycin sulfate]
20 | > 45.8 | > 45.8 | O=C1CN(/N=C/c2ccc([N+](=O)[O-])o2)C(=O)N1 [Nitrofurantoin]
21 | > 45.8 | > 45.8 | CC(=O)O[C@H]1C[C@@H]2CC[C@@H]3[C@H](CC[C@@]4(C)[C@H]3C[C@H]([N+]3(C)CCCCC3)[C@@H]4OC(C)=O)[C@@]2(C)C[C@@H]1N1CCCCC1 [Vecuronium bromide]
22 | > 45.8 | > 45.8 | CC(C)=CCC1C(=O)N(c2ccccc2)N(c2ccccc2)C1=O [Feprazone]
23 | > 45.8 | > 45.8 | CC(=O)/N=c1/sc(S(N)(=O)=O)nn1C [Methazolamide]
24 | > 45.8 | > 45.8 | Nc1ncn([C@H]2C[C@H](O)[C@@H](CO)O2)c(=O)n1 [Decitabine]
25 | > 45.8 | > 45.8 | CCN1CCCC1CNC(=O)c1cc(S(=O)(=O)CC)ccc1OC (stereo unspecified) [Sultopride hydrochloride]
26 | > 45.8 | > 45.8 | O=C(Cc1cccs1)N[C@@H]1C(=O)N2C(C(=O)[O-])=C(C[n+]3ccccc3)CS[C@H]12 [Cephaloridine]
27 | > 45.8 | > 45.8 | C[C@]12CCC(=O)C[C@@H]1CC[C@@H]1[C@@H]2CC[C@]2(C)C=CC[C@@H]12 [Androstenone]

Row | IC50 cell viability (ICRF193 0 nM) [µM] | IC50 cell viability (ICRF193 200 nM) [µM] | SMILES
28 | > 45.8 | > 45.8 | Cc1ccsc1C(=CCCN1CCC[C@@H](C(=O)O)C1)c1sccc1C [Tiagabine hydrochloride]
29 | > 45.8 | > 45.8 | C[C@@H]1C[C@H]2[C@@H]3C[C@H](F)C4=CC(=O)C=C[C@]4(C)[C@@]3(F)[C@@H](O)C[C@]2(C)[C@@]1(O)C(=O)COC(=O)C(C)(C)C [Flumethasone pivalate]
30 | > 45.8 | > 45.8 | O=C(O)/C=C/c1ccccc1 [CINNAMIC ACID]
31 | > 45.8 | > 45.8 | Cc1cn(-c2cc(NC(=O)c3ccc(C)c(Nc4nccc(-c5cccnc5)n4)c3)cc(C(F)(F)F)c2)cn1 [Nilotinib]
32 | > 45.8 | > 45.8 | CN1C(=O)CC(C)(c2ccccc2)C1=O (stereo unspecified) [Methsuximide]
33 | > 45.8 | > 45.8 | CCN(CC)CC(=O)Nc1c(C)cccc1C [Lidocaine]
34 | > 45.8 | > 45.8 | CC[C@@H](CO)NCCN[C@@H](CC)CO [Ethambutol dihydrochloride]
35 | > 45.8 | > 45.8 | CO[C@H]1/C=C/O[C@@]2(C)Oc3c(C)c(O)c4c(c3C2=O)C2=NC3(CCN(CC(C)C)CC3)NC2=C(NC(=O)/C(C)=C\C=C\[C@H](C)[C@H](O)[C@@H](C)[C@@H](O)[C@@H](C)[C@H](OC(C)=O)[C@@H]1C)C4=O [Rifabutin]
36 | > 45.8 | > 45.8 | CCCCCCCCCCCCCCCCCCCCCC(=O)Nc1ccn([C@@H]2O[C@H](CO)[C@@H](O)[C@@H]2O)c(=O)n1 [Enocitabine]
37 | > 45.8 | > 45.8 | CCC1(C)OC(=O)N(C)C1=O (stereo unspecified) [PARAMETHADIONE]
38 | > 45.8 | > 45.8 | CN1CCOC(c2ccccc2)c2ccccc2C1 (stereo unspecified) [Nefopam hydrochloride]
39 | > 45.8 | > 45.8 | CC1(C)S[C@@H]2[C@H](NC(=O)C(C(=O)O)c3ccccc3)C(=O)N2[C@H]1C(=O)O (stereo partly specified) [Carbenicillin disodium]
40 | > 45.8 | > 45.8 | CC(=O)NC[C@H]1CN(c2ccc(N3CCOCC3)c(F)c2)C(=O)O1 [Linezolid]
41 | > 45.8 | > 45.8 | CCOC(=O)C1=C[C@@H](OC(CC)CC)[C@H](NC(C)=O)[C@@H](N)C1 [Oseltamivir Phosphate]
42 | > 45.8 | > 45.8 | O=C1O[C@H]([C@@H](O)CO)C(O)=C1O [L-Ascorbic acid]
43 | > 45.8 | > 45.8 | COc1cc(O)c(C(=O)c2ccccc2)cc1S(=O)(=O)O [Sulisobenzone]
44 | > 45.8 | > 45.8 | COc1cc2nccc(Oc3ccc(NC(=O)NC4CC4)c(Cl)c3)c2cc1C(N)=O [Lenvatinib]
45 | > 45.8 | > 45.8 | CC(NCCc1ccc(O)cc1)C(O)c1ccc(O)cc1 (stereo unspecified) [Ritodrine hydrochloride]
46 | > 45.8 | > 45.8 | NC[C@H]1O[C@H](O[C@H]2[C@H](O)[C@@H](O[C@H]3O[C@H](CO)[C@@H](O)[C@H](N)[C@H]3O)[C@H](N)C[C@@H]2N)[C@H](N)C[C@@H]1O [Tobramycin]
47 | > 45.8 | > 45.8 | Cc1cc2cc3c(C)cc(=O)oc3c(C)c2o1 [Trioxsalen]
48 | > 45.8 | > 45.8 | CN1C(=O)[C@]23C[C@H]4C(C)(C)[C@]5(CNc6c5ccc5c6OC=CC(C)(C)O5)C[C@@]41CN2CC[C@@]3(C)O [Derquantel]
49 | > 45.8 | > 45.8 | CC(C)(C)NCC(O)CSc1nc(-c2ccc(C(N)=O)s2)cs1 (stereo unspecified) [Arotinolol hydrochloride]
50 | > 45.8 | > 45.8 | CC(CN(C)C)C(C)(O)Cc1ccc(Cl)cc1 (stereo unspecified) [Clobutinol hydrochloride]
51 | > 45.8 | > 45.8 | Cc1ccc(/C=N/n2c(-c3ccccc3)csc2=S)cc1 [Fezatione]
52 | > 45.8 | > 45.8 | N=C(N)NCCC[C@H](N)C(=O)O [L-Arginine]
53 | > 45.8 | > 45.8 | COc1ccc(CN(CCN(C)C)c2ncccn2)cc1 [Thonzylamine hydrochloride]

Row | SMILES | IC50 cell viability (ICRF193 0 nM) [µM] | IC50 cell viability (ICRF193 200 nM) [µM]
54 | CC[C@@H](C(N)=O)N1CCCC1=O [Levetiracetam] | > 45.8 | > 45.8
55 | NCCCNCCSP(=O)(O)O [Amifostine] | > 45.8 | > 45.8
56 | O=[N+]([O-])c1cc([As](=O)(O)O)ccc1O [4-Hydroxy-3-nitrophenylarsonic acid] | > 45.8 | > 45.8
57 | Nc1ccc([As](=O)(O)O)cc1 [(4-Aminophenyl)arsonic acid] | > 45.8 | > 45.8
58 | Cc1c(Cl)c(=O)oc2cc(OP(=O)(OCCCl)OCCCl)ccc12 [Haloxon] | > 45.8 | > 45.8
